Results on 18 molecules are retold here after PubChem BioAssay (NCI).

What all share (test): NCI anticancer screen, dose series, 48 h
Assay [1] has as its system UACC-257 melanoma.
Assay [2] deals with UO-31 renal.
In assay [3] the test system is A549 NSCLC.
The subject of assay [4] is OVCAR-3 ovarian.
For assay [5], the system named is 786-0 renal.
The test system of assay [6] is IGROV1 ovarian.
The test system of assay [7] is K-562 leukemia.
For assay [8], the system named is HOP-62 NSCLC.
Assay [9] concerns SF-539 CNS.
For assay [10], the system named is SN12C renal.

Several values for one entry are separate records, joined by “and”; a condition that tells them apart may be missing. Equal entries are not always repeated.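 1) Cells in 96-well plates. 2) Compound, 48 h, 5 concentrations. 3) Linear interpolation between surrounding doses. 4) Unreached endpoint = highest concentration. GI50: concentration for 50% inhibition of growth. TGI is the concentration that stops growth completely.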

With `COc1ccc(/C=C/C(=O)c2cc3c(N)c(C(=O)Nc4ccccc4Cl)sc3nc2C)cc1`, the GI50 was 1.19 µM in assay [1]; 1.17 µM in assay [2]; 2.14 µM in [3]; 2.11 µM in [4]; 0.839 µM in assay [5]; 2.72 µM in assay [6]. The GI50 was 2.49 µM in [7], 1.62 µM in assay [8], 2.04 µM in assay [9] and 3.78 µM in [10]. Besides, the TGI in [1] is 13.5 µM; in [2] it was 3.94 µM; in [3], above 50 µM; in assay [4] it was 16.3 µM; in [5], 2.18 µM; in [6] it was above 50 µM. Also, the TGI in assay [7] was above 50 µM; in assay [8], 8.02 µM; in [9], 9.45 µM; in [10], above 50 µM.
On to `C[C@]12CCC3[C@@H](C[C@@H]4SC(Nc5ccccc5)=N[C@@]45CC(=O)CC[C@]35C)[C@@H]1CCC2=O` (stereo not given in full), for which the GI50 in assay [1] was 23.8 µM; in [2], 5.26 µM; in [3] it was 26.4 µM; in assay [4] it was 4.41 µM; in assay [5], 3.02 µM; in [6], 8.21 µM. The GI50 was 2.79 µM in assay [7], 22.4 µM in [8], 3.04 µM in assay [9] and 3.81 µM in assay [10]. Also, the TGI in assay [1] was 94.5 µM; in assay [2], 19.4 µM; in assay [3], above 100 µM; in assay [4], 50.8 µM; in [5], 13.1 µM; in assay [6] it was above 100 µM. In addition, the TGI in [7] is above 100 µM; in assay [8], above 100 µM; in assay [9] it was 13.3 µM; in [10], 25.3 µM.
As to `OCc1cn(Cc2cccc(Cl)c2)c2ccccc12`, the GI50 was 0.823 µM in assay [1]; 5.01 µM in assay [2]; 15 µM in assay [3]; 0.128 µM in assay [4]; 5.15 µM in [5]; below 0.0271 µM in [6]. Also, the GI50 was 1.99 µM in [7], 9.74 µM in [8], 13.5 µM in [9] and 12 µM in assay [10]. Further, the TGI was 5.61 µM in assay [1]; 41.4 µM in assay [2]; 65.8 µM in assay [3]; 1.1 µM in [4]; 28.1 µM in [5]; 0.507 µM in assay [6]. The TGI in assay [7] is 31.9 µM; in assay [8], 47.3 µM; in assay [9], 30.9 µM; in [10], 42.6 µM.
Take `O=C(/C=C/c1cccnc1)NCCCCC1CCN(C(=O)c2ccccc2)CC1`: the GI50 in [1] was above 100 µM; in assay [2], above 100 µM; in assay [3], 0.166 µM; in assay [4], 48.5 µM and 6.22 µM; in assay [5], above 100 µM; in [6], above 47.3 µM. Moreover, the GI50 in assay [7] is below 0.01 µM; in assay [8], above 100 µM; in [9], below 0.01 µM; in assay [10], below 0.01 µM. The TGI in [1], in assay [2], in [3], in [4], in [5] and in [6] was above 100 µM in each case. Besides, the TGI in assay [7], in [8], in assay [9] and in assay [10] was above 100 µM each time.
As for `CC(=O)OC[C@H]1O[C@@H](n2ccc(=O)[nH]c2=O)[C@H](OC(C)=O)[C@@H]1OC(C)=O`, the GI50 in [1], in [2], in assay [3], in assay [4], in assay [5] and in [6] was above 100 µM each time. Also, the GI50 in [7], in assay [8], in assay [9] and in [10] was above 100 µM in each case. The TGI in assay [1], in assay [2], in assay [3], in [4], in [5] and in assay [6] was above 100 µM throughout. Besides, the TGI in assay [7], in [8], in assay [9] and in assay [10] was above 100 µM each time.
For the molecule `O=c1n(C2CCCCC2)c(=C(Cl)Cl)c(=C(Cl)Cl)n1C1CCCCC1`, the TGI in assay [1], in assay [2], in [3], in [4], in [5] and in [6] was above 100 µM throughout. For the same molecule, the TGI in assay [7], in assay [8], in assay [9] and in assay [10] was above 100 µM in each case.
Turning to `CCN1C2=NC(=O)N(C)C(=O)C2(Cl)C(C(SC)S(=O)(=O)c2ccc(C)cc2)c2ccccc21` (stereo not given), the TGI in assay [1] is above 100 µM; in assay [2], 76.1 µM; in [3], above 100 µM; in [4] it was 80.2 µM; in assay [5], 52.9 µM; in assay [6] it was above 100 µM. Besides, the TGI in assay [7] is 55.1 µM; in [8] it was above 100 µM; in [9], above 100 µM; in assay [10] it was above 100 µM.
As to `Cc1c(C#N)cccc1-c1cc(-c2cn(Cc3cccc(C(C)(C)O)n3)nn2)nc(N)n1`, the GI50 was 27.7 µM in assay [1]; 10.7 µM in assay [2]; 26.9 µM in [3]; 17.6 µM in [4]; 32 µM in assay [5]; 14.4 µM in assay [6]. The GI50 is 13.4 µM in assay [7], 22.2 µM in assay [8], 39.6 µM in assay [9] and 17.2 µM in assay [10]. For the same molecule, the TGI in [1], in assay [2], in [3], in [4], in [5] and in assay [6] was above 100 µM throughout. In addition, the TGI in assay [7], in assay [8], in [9] and in [10] was above 100 µM in each case.
`CC(=O)Nc1ccc(/C=C/[N+](=O)[O-])cc1`: the TGI in assay [1] was determined as 17 µM; in assay [2], 4.58 µM; in [3], 17.6 µM; in assay [4], 10.7 µM; in [5], 7.61 µM; in assay [6], 7.35 µM. The TGI in [7] amounted to 8.57 µM; in assay [8], 21.4 µM; in assay [9], 6.35 µM; in assay [10], 9.8 µM.
As to `COP(=O)(OC)C(NC(c1ccccc1)c1ccccc1)c1ccc2c(c1)OCO2` (stereo not given), the GI50 in assay [1] is 31.4 µM; in [2], 21.8 µM; in assay [3], 27.3 µM; in assay [4] it was 22.1 µM; in assay [5] it was 29.5 µM; in assay [6] it was 22 µM. Moreover, the GI50 in assay [7] was 20.7 µM; in [8] it was 21.5 µM; in assay [9] it was 20.2 µM; in [10], 24 µM. Besides, the TGI was 89.7 µM in [1]; 53.9 µM in [2]; above 100 µM in [3]; 50.2 µM in [4]; 74.9 µM in [5]; 73.6 µM in assay [6]. Also, the TGI in [7] was 65 µM; in assay [8] it was 52.2 µM; in assay [9], 36 µM; in assay [10] it was 53.8 µM.
In the case of `CN(C)CCCn1c2c(c3cnccc3c1=O)C(=O)c1ccccc1-2`, the GI50 in assay [1] is 0.486 µM; in assay [2], 0.183 µM; in assay [3], 0.676 µM; in assay [4] it was 1.1 µM; in assay [5], 0.361 µM; in [6], 0.411 µM. In addition, the GI50 in [7] is 0.474 µM; in assay [8], 0.402 µM; in assay [9], 0.377 µM; in [10] it was 0.289 µM. Moreover, the TGI in assay [1] is 3.21 µM; in assay [2] it was 2.55 µM; in assay [3], 3.86 µM; in assay [4], 5.47 µM; in assay [5] it was 13.6 µM; in assay [6] it was 3.75 µM. The TGI in assay [7] was found to be 12.5 µM; in assay [8], 7.75 µM; in assay [9] it was 2.9 µM; in assay [10] it was 4.35 µM.
Turning to `CCOC(=O)CC(=O)Sc1ccccc1`, the TGI in assay [1] came out at 91.4 µM; in assay [2] it was 28.4 µM; in assay [3] it was 60.6 µM; in assay [4] it was 42.7 µM; in [5], 37 µM; in assay [6], 26 µM. The TGI turned out to be 58.7 µM in assay [7], 65.6 µM in [8], 28.6 µM in assay [9] and 24.6 µM in assay [10].
For `CCCC[C@H]1C(=O)O[C@H](C)[C@H](NC(=O)c2cccc(NC=O)c2O)C(=O)O[C@@H](C)[C@@H]1OC(=O)CC(C)C`, the TGI amounted to 69.6 µM in assay [1]; 33.2 µM in [2]; 29.5 µM in assay [3]; 24.6 µM in assay [4]; 35 µM in [5]; 41.9 µM in [6]. For the same molecule, the TGI is 57.7 µM in assay [7], 33.2 µM in [8], 31.8 µM in assay [9] and 40.7 µM in assay [10].
With `Cc1ccccc1-c1c(N)nc(NC#N)nc1C(=O)Nc1ccccc1`, the TGI in [1], in [2], in [3], in assay [4], in assay [5] and in [6] was above 100 µM each time. For the same molecule, the TGI in assay [7], in assay [8], in assay [9] and in assay [10] was above 100 µM each time.
In the case of `O=C(O)c1ccc2c(c1)Cc1cc([N+](=O)[O-])ccc1-2`, the TGI in assay [1], in assay [2], in assay [3], in assay [4], in [5] and in assay [6] was above 100 µM in each case. Also, the TGI in assay [7], in assay [8], in assay [9] and in assay [10] was above 100 µM each time.
Turning to `COC(=O)C1=C(C)N(NC(N)=O)C2(N)N(NC(N)=O)C(C)=C(C(=O)OC)C12C(=O)OC` (stereo not given), the TGI in assay [1] was above 100 µM; in assay [2], above 100 µM; in assay [3], above 100 µM; in assay [4], above 10 µM; in [5], above 100 µM; in assay [6] it was above 100 µM. For the same molecule, the TGI in assay [7], in [8], in assay [9] and in assay [10] was above 100 µM in each case.
Take `COc1ccc(/C=N/N=C(\N)NO)cc1OC`: the TGI is above 100 µM in assay [1]; above 100 µM in assay [2]; 95.8 µM in assay [3]; above 100 µM in assay [4]; above 100 µM in [5]; above 100 µM in assay [6]. The TGI was above 100 µM in assay [7], above 100 µM in assay [8], 64.9 µM in assay [9] and above 100 µM in assay [10].
As to `Cc1ccc2c(c1)nc(C(=O)c1ccco1)c(C(F)(F)F)[n+]2[O-]`, the GI50 in assay [1] was 63.4 µM; in assay [2] it was 47.2 µM; in assay [3] it was above 100 µM; in assay [4], above 100 µM; in assay [5] it was above 100 µM; in [6] it was 48 µM. In addition, the GI50 is 40.5 µM in assay [7], above 100 µM in assay [8], above 100 µM in assay [9] and above 100 µM in assay [10]. Besides, the TGI in assay [1], in assay [2], in [3], in assay [4], in [5] and in [6] was above 100 µM throughout. For the same molecule, the TGI in [7], in [8], in assay [9] and in assay [10] was above 100 µM throughout.
